Results from patent US7150974B1, “Parathyroid hormone receptor binding method” (The General Hospital Corporation, priority 1991, dated 2006).

Key:
[1] = target: T1, opossum kidney PTH/PTHrP receptor clone, OK-H (Didelphis virginiana, UniProt P25107, I132F/S86P); assay: Radioreceptor assay, COS cells expressing OK-H; assay type: binding; details: FIG. 9
T1 construct: expressed in transfected cells; host or cells: COS cells, transient, plasmid OK-H (pcDNA I)
Description: (§1) In brief, the labeled peptide was dissolved in 0.1% trifluoracetic acid (TFA), applied to a C18 Sep-pak cartridge (Waters Associates, Inc., Milford, Mass.) and eluted with a solution of 60% acetonitrile in 0.1% TFA. After lyophilization, the radioligand then was applied to C18-μBondapak column (3.9 mm×30 cm. Waters Associates) and eluted over 30 min with a linear gradient of 30-50% acetonitrile-0.1% TFA at a flow rate of 2 ml/min.
(§2) COS-7 cells were grown in 15 cm plates in DMEM, 10% heat-inactivated […], 10 mg/L gentamycin until 80-90% confluent. Twenty-four hours after transfection by the DEAE/Dextran method (Sambrook et al., supra), with 1-2 μg of plasmid DNA, the cells were trypsinized and replated in multiwell plastic dishes (16 or 35 mm diameter, Costar, Cambridge, Mass.) at a cell concentration of 5×10^4 cells/cm^2). […] After continuing culture for another 48 h, radiorecepter assays were performed. The culture medium was replaced with buffer containing 50 mM Tris-HCL (pH 7.7), 100 mM NaCl, 2 mM CaCl2, 5 mM KCL, 0.5% heat-inactivated fetal bovine serum (GIBCO), and 5% heat-inactivated horse serum (KC Biological Inc., Lenexa, Kans.) immediately before studies were initiated.
(§3) Incubations were terminated by aspirating the buffer, and repeatedly (×3) washing the culture dishes, containing the adherent cells with chilled 0.9% NaCl solution, over a 15 sec period. Cell-bound radioactivity was recovered by the sequential addition (×3) of 1 N NaOH (200 μl) to each well. After 30 min at room temperature, the NaOH was transferred to a glass tube. A second and third extraction with 1 N NaOH (200 μl) were combined with the first, and the total radioactivity was counted in a γ-spectrometer (Packard Instruments, Downers Grove, Ill.).

[2] = target: T1, opossum kidney PTH/PTHrP receptor clone, OK-H; assay: cAMP accumulation, COS cells expressing OK-H; assay type: cell-based; details: FIG. 16
Description: Intracellular cAMP accumulation was measured as described previously (Abou-Samra et al., J. Biol. Chem. 262:1129, 1986). Cells in 24-well plates were rinsed with culture medium containing 0.1% BSA and 2 mM IBMX. The cells were then incubated with PTH or PTHrP for 15 min. at 37° C. The supernatant was removed and the cells immediately frozen by placing the whole plate in dry ice powder. Intracellular cAMP was extracted by thawing the cells in 1 ml of 50 mM HCl and analyzed by a specific radioimmunoassay using an anti-cAMP antibody (e.g., Sigma, St. Louis, Mo.). A cAMP analog (2′-O-monosuccinyl-adenosine 3′:5′-cyclic monophosphate tyrosyl methyl ester, obtained from Sigma) which was used a tracer for cAMP was iodinated by the chloramine T method. Free iodine was removed by adsorbing the iodinated cAMP analog onto a C18 Sep-pak cartridge (Waters, Milford, Mass.). After washing with dH2O, the iodinated cAMP analog was eluted from the Sep-pak Cartridge with 40% acetonitrille (ACN) and 0.1% trifluoroacetic acid (TFA). The iodinated cAMP analog was lyophilized, reconstituted in 1 ml 0.1% TFA, and injected into a C18 reverse phase HPLC column (Waters). […] The supernatant was removed and the bound radioactivity was counted in a γ-counter (Micromedic). Standard curves were calculated using the four-parameter RIA program supplied by Micromedic. […]

[3] = target: T2, rat bone PTH/PTHrP receptor (Rattus norvegicus, UniProt P25961, E586G); assay: Radioreceptor assay, COS cells expressing rat bone PTH/PTHrP receptor (R15B); assay type: binding
T2 construct: expressed in transfected cells; host or cells: COS / COS-7 cells, transient, plasmid R15B (pcDNA I)
T2 sequence (P25961 27-591 E586G): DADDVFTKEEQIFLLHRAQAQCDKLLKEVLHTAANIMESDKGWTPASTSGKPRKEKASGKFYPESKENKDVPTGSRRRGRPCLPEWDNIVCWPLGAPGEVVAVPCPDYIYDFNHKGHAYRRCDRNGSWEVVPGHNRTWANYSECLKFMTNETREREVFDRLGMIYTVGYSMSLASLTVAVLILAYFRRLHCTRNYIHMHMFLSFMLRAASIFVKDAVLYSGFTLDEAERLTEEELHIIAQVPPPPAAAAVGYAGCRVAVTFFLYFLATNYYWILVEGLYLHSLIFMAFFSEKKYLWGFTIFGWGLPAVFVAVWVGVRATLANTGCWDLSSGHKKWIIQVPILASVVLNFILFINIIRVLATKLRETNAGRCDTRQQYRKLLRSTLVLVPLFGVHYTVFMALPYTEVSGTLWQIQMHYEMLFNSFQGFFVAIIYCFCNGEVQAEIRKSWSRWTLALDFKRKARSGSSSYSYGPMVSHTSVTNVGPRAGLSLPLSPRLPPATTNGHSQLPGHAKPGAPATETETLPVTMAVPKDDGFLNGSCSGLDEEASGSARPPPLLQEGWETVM
Description: as §1, §2, §3

T1 sequence (P25107 other isoform, or with tags, fused parts or gaps S86P/I132F): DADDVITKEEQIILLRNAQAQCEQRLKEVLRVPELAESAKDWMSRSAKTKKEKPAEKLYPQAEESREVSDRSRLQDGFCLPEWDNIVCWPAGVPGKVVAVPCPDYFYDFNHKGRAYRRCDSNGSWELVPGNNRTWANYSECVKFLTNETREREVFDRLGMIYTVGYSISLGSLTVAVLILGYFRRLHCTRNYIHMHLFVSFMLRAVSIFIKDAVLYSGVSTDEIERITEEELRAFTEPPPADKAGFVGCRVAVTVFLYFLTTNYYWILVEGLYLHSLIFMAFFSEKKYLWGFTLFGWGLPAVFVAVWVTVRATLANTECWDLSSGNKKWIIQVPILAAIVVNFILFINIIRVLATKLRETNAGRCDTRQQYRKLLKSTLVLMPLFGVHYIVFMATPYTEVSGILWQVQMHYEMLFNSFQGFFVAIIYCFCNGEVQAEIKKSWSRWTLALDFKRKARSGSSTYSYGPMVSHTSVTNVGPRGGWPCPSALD

Question: [Nle^8,18, Tyr^34]bPTH(1-34)amide was tested. Which “inhibition of 125I-PTHrP binding by competitor” value [1] did it give?
Answer: inhibited

Question: What about the cAMP accumulation [2] of the same substance?
Answer: increase cAMP accumulation

Question: What about the “inhibition of 125I-PTHrP binding by competitor” value ([3]; COS cells expressing R15B, FIG. 13) of the same substance?
Answer: inhibited

Question: What about the “specific binding of radiolabelled ligand” value ([3]; radiolabelled ligand ~200,000 cpm, COS-7 cells expressing R15B) of the same substance?
Answer: 8.1 ± 3.5%
